Legend:
Cannabinoid receptor 2 = Cannabinoid receptor 2 (Homo sapiens, UniProt P34972); experiment: (§1) cAMP Assay: CHO cells expressing human CB1 or CB2 receptors are seeded 17-24 hours prior to the experiment 50.000 cells per well in a black 96 well plate with flat clear bottom (Corning Costar #3904) in DMEM (Invitrogen No. 31331), 1×HT supplement, with 10% fetal calf serum and incubated at 5% CO2 and 37° C. in a humidified incubator. The growth medium was exchanged with Krebs Ringer Bicarbonate buffer with 1 mM IBMX and incubated at 30° C. for 30 min. Compounds were added to a final assay volume of 100 μl and incubated for 30 min at 30° C. Using the cAMP-Nano-TRF detection kit the assay (Roche Diagnostics) was stopped by the addition of 50 μl lysis reagent (Tris, NaCl, 1.5% Triton X100, 2.5% NP40, 10% NaN3) and 50 μl detection solutions (20 μM mAb Alexa700-cAMP 1:1, and 48 μM Ruthenium-2-AHA-cAMP) and shaken for 2 h at room temperature. The time-resolved energy transfer is measured by a TRF reader (Evotec Technologies GmbH), equipped with a ND:YAG laser as excitation source. The plate is measured twice with the excitation at 355 nm and at the emission with a delay of 100 ns and a gate of 100 ns, total exposure time 10s at 730 (bandwidth 30 nm) or 645 nm (bandwidth 75 nm), respectively.; assay type: functional, cell-based
Sequence of Cannabinoid receptor 2 (P34972 whole entry): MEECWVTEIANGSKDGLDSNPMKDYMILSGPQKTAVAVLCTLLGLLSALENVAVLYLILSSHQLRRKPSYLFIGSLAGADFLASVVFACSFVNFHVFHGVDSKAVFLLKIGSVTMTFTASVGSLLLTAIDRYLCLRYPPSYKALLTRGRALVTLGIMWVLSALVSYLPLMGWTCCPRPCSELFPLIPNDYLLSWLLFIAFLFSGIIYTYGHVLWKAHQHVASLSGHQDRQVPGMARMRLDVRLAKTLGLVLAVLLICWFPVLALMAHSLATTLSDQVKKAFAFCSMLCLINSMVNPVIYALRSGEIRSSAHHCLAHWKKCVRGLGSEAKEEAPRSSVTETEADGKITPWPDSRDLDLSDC

Cannabinoid receptor 1 = Cannabinoid receptor 1 (Homo sapiens, UniProt P21554); experiment: as §1; assay type: functional, cell-based
Sequence of Cannabinoid receptor 1 (P21554 whole entry): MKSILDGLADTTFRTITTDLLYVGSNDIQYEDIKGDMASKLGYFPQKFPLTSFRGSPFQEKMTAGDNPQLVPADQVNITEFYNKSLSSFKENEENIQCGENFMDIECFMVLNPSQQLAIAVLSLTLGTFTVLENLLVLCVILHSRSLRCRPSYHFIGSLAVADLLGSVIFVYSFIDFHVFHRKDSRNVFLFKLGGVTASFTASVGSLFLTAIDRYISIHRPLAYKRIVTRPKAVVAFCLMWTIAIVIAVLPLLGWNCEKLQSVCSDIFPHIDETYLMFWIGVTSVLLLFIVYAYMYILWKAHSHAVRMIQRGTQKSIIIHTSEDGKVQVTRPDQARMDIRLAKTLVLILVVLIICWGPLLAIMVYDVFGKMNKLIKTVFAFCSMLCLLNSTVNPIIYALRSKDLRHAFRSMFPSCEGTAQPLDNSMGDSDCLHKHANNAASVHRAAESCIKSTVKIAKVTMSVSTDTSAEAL

Row | SMILES | EC50 (Cannabinoid receptor 2) [nM] | EC50 (Cannabinoid receptor 1) [nM]
1 | CC(C)(CCc1ccncc1)NC(=O)c1cnc(C2CC2)c(OCC2CC2)n1 | 280 | –
2 | O=C(NN1CCCCC1)c1cnc(C2CC2)c(OCC2CC2)n1 | 327 | > 10000
3 | CNC(=O)C(CC1CCC1)NC(=O)c1cnc(N2CC(F)(F)C2)c(OCC2CC2)n1 (centres undefined) | 51.7 | > 10000
4 | CC(C)(O)[C@H](CC1CC1)NC(=O)c1cnc(C2CC2)c(OCC2CC2)n1 | 198 | > 10000
5 | O=C(NC1(CO)CCCCC1)c1cnc(N2CC(F)(F)C2)c(OCC2CC2)n1 | 1.8 | > 10000

— ChEMBL document CHEMBL3886855, “Pyrazine derivatives” (2016)
